From publication PMC12081876, “Identification of PTGR2 inhibitors as a new therapeutic strategy for diabetes and obesity” (EMBO Molecular Medicine, 2025)
Values joined by “and” are separate entries in the source; they are usually repeats but may differ in a detail not shown here. Identical values can stand only once.

Tests used:
hPTGR2 = hPTGR2 (Homo sapiens, UniProt Q8N8N7); assay: Conversion of 15-keto-PGE2 by recombinant human PTGR2 protein; assay type: biochemical; set-up: made in house; conditions: incubated with recombinant human PTGR2 protein
Myc-DDK-mPPARγ C313A = biological target: T1, Myc-DDK-mPPARγ C313A (Mus musculus, UniProt P37238, C313A); assay: Reciprocal co-immunoprecipitation in HEK293T cells, mPPARγ C313A; assay type: binding, murine; conditions: 15-keto-PGE2 treated
T1 construct: host or cells: HEK293T
Experimental: HEK293T cells were transfected with murin PPARγ (mPPARγ) and mPPARγ C313A plasmids for immunoprecipitation, which are Myc-DDK-tagged (OriGene, USA). […] According to the manufacturer’s protocol, proteins were immunoprecipitated using Anti-FLAG® M2 Magnetic Beads (2.5 mg/ml; cat. no. F1804, Sigma-Aldrich). Subsequently, the eluted proteins were separated by SDS-PAGE and subjected to immunoblot analysis. Following separation by SDS-PAGE, proteins were stained with Coomassie blue and SYPRO-Ruby stain. The protein bands of interest were cut out for in-gel tryptic digestion followed by C18 Zip-Tip clean-up (Millipore, USA). For proteomic shotgun identifications, nanoLC-nanoESI-MS/MS analysis was performed on a nanoAcquity system (Waters, USA) connected to the LTQ Orbitrap Velos hybrid MS (Thermo Electron, USA) equipped with a PicoView nanospray interface (New Objective, USA). Samples were loaded onto a C18 BEH column (75 μm × 25 cm length, 130 Å, 1.7 μm particle size) (Waters, USA) and separated by a segmented gradient form in 60 min from 5% to 40% acetonitrile (with 0.1% formic acid) at a constant flow rate of 300 nL/min with a column temperature of 35 °C. The mass spectrometer was operated in the data-dependent mode. […] Protein identification and modification were analyzed using Mascot Daemon (Matrix Science Inc., Chicago). […]

[1] = test system: HFHSD-fed obese C57BL6/J mice; assay: Energy expenditure, food intake and physical activity (indirect calorimetry); assay type: in vivo, mouse; conditions: 40 mg/kg/day ip, vs vehicle
Experimental: Metabolic measurements (food and water intake, locomotor activity, VO2 consumption and VCO2 production) were obtained using the Promethion metabolic phenotyping system (Sable Systems). The mice were housed in the Promethion system with ad libitum access to food and water. Monitoring was performed for 5 days after mice have been acclimatized to the cages for 2 days.
All values were expressed as mean ± S.E.M. All reported sample sizes were biologically independent but not technically repeatedly measured. Skewed data was logarithmized to approximate normal distribution. Comparisons between two separate groups were performed using Student t-tests. Comparisons among multiple groups were conducted using a one-way analysis of variance with post hoc analyses. Statistical analyses were conducted using GraphPad Prism 8.0 and SAS 9. Energy expenditure between genotypes was analyzed using the generalized linear model according to international guidance (Speakman et al, [2013]; Tschöp et al, [2011]). Energy expenditure (expressed as kcal/hr) was regressed on body weight using the command “glm” implemented in STATA 14.0 (Speakman et al, [2013]; Tschöp et al, [2011]). Two-sided p-values < 0.05 were considered statistically significant. The sample size was determined according to our previous experience. There was no exclusion/inclusion criteria, blinding and randomization.

murine PPARγ (mPPARγ) = biological target: T2, murine PPARγ (mPPARγ) (Mus musculus, UniProt P37238); assay: Gal4-PPARγ/UAS-LUC reporter assay in HEK293T cells; assay type: cell-based; set-up: key to Gal4-PPARγ/UAS-LUC reporter activity, Fig 1B replicates: luciferase activity normalized to TK reporter signal
T2 construct: host or cells: HEK293T
Experimental: Briefly, HEK293T cells were seeded in 24-well plates at 1 × 10^5 cells/well. […] Luciferase activity was measured using Luc-Pair™ Duo-Luciferase HS Assay Kit (cat. no. LF600, Promega) and normalized with the TK reporter signal.

hPTGR2, sequence (Q8N8N7 whole entry): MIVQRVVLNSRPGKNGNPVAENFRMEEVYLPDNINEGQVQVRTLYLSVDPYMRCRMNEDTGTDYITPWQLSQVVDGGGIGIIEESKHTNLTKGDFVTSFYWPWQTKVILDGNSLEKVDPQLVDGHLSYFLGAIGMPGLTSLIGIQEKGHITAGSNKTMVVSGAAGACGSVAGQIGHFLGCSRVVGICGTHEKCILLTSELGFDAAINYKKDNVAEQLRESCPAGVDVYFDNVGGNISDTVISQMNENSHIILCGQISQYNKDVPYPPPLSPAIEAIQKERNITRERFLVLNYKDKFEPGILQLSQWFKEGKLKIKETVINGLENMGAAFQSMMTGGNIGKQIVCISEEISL

15-keto-PGE2 converted into 13,14-dihydro-15-keto-PGE2 (hPTGR2): 99.83%
Gal4-PPARγ/UAS-LUC reporter activity, Fig 1B replicates (murine PPARγ (mPPARγ); 15kPGE2 5μM): 2.161 and 2.101 and 1.961
Gal4-PPARγ/UAS-LUC reporter activity, Fig 1B replicates (murine PPARγ (mPPARγ); 15kPGE2 10μM): 2.283 and 3.108 and 3.049
Gal4-PPARγ/UAS-LUC reporter activity, Fig 1B replicates (murine PPARγ (mPPARγ); 15kPGE2 30μM): 5.273 and 6.22 and 5.349
Compound: CCCCCC(=O)/C=C/[C@H]1[C@H](O)CC(=O)[C@@H]1C/C=C\CCCC(=O)O [15-keto-PGE2, 15-keto-prostaglandin E2]
co-immunoprecipitation with 15-keto-PGE2-cysteine antibody, mPPARγ C313A (Myc-DDK-mPPARγ C313A): not in samples expressing mPPARγ with C313A mutation
energy expenditure ([1]; age 8 weeks): Higher energy expenditure
Food intake [1]: similar
physical activity [1]: similar
transactivation activity of PPARγ (Gal4-PPARγ/UAS-LUC reporter) (murine PPARγ (mPPARγ); HEK293T cells): enhanced the transactivation activity of PPARγ in a dose-dependent manner
